Data on three compounds can be found in patent publication US4644006A, “Substituted 3,4-diamino-1,2,5-thiadiazoles having histamine H2 -receptor antagonist activity” (Bristol-Myers Company, priority 1984, dated 1987).

The target of experiment [1] is T1, histamine H2-receptors (isolated guinea pig right atria) (Cavia porcellus, UniProt P47747).
T1 construct: The spontaneously beating right atrium was dissected free from other tissues; from tissue; host or cells: isolated spontaneously beating right atrium of male Hartley guinea pigs
T1 sequence (P47747 whole entry): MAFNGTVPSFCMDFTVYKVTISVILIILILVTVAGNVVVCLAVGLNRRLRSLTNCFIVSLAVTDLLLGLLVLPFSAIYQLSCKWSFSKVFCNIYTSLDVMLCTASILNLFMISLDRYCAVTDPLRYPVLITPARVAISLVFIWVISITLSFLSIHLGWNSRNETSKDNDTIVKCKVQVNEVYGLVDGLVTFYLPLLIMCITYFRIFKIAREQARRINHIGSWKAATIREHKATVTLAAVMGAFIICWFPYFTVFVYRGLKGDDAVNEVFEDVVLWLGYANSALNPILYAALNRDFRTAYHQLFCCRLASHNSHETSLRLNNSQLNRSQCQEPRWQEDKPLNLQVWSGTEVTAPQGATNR
Put plainly: Histamine H2-receptor antagonism, isolated guinea pig right atria assay. Set-up: estimated dissociation constant KB: unit not given here. As to conditions: for effect on histamine or dimaprit dose-response curves: at the concentrations utilized, 30-minute incubation. Here is the method:
Subsequent investigations by Hughes and Coret, Proc. Soc. […] Black et al., Agents and Actions, 3, 133 (1973) and Brimblecombe et al., Fed. […] The present comparative studies were carried out using a modification of the procedure reported by Reinhardt et al., Agents and Actions, 4, 217 (1974).
The spontaneously beating right atrium was dissected free from other tissues and a silk thread (4-0) attached to each end.

In experiment [2] the test system is gastric acid secretion (Heidenhain pouch dog). Put plainly: Gastric antisecretory activity in the histamine-stimulated Heidenhain pouch dog. The experiment is classed as in vivo. As to conditions: for ED50: Canis lupus familiaris, 0.5 h, read-out: ED50 i.v. Here is the method: Prior to surgery, hematology and blood chemistry profiles are obtained and an assessment made as to the general health of selected female dogs. Dogs are vaccinated with Tissue Vax 5 (DHLP-Pitman-Moore) and housed in general animal quarters for four weeks' observation so incipient diseases may become apparent. Dogs are fasted with water ad libitum 24 hours prior to surgery.
Anesthesia is induced with Sodium Pentothal (Abbott) 25-30 mg/kg iv. Subsequent anesthesia is maintained with methoxyflurane (Pitman-Moore). A mid-line linea alba incision from xiphoid to umbilicus provides good exposure and ease of closure. The stomach is pulled up into the operative field, the greater curvature stretched out at multiple points and clamps placed along the selected line of incision. The pouch is made from the corpus of the stomach so that true parietal cell juice is obtained. About 30% of the corpus volume is resected. The cannula is made of light-weight,biologically-inert material such as nylon, Delrin or surgical stainless steel with dimensions and attachments after DeVito and Harkins [J. Appl. Physiol., 14, 138 (1959)]. Post-operatively, dogs are medicated with antibiotics and an analgesic. They are allowed 2-3 months for recovery. Experiments are carried out in the following way: Dogs are fasted overnight (18 hours) with water ad libitum prior to each experiment. The dogs are placed in a sling and a saphenous vein cannulated for drug administration. Histamine as the base (100 μg/kg/hr) and chlorpheniramine maleate (0.25 mg/kg/hr) are infused continuously (in a volume of 6 ml/hr) with a Harvard infusion pump.
Ninety minutes' infusion are allowed for the dogs to reach a steady state of acid output. At this time the drug or normal saline (control) is administered concomitantly with the secretagogue in a volume of 0.5 ml/kg over a 30 second period. Infusion of the secretagogue is continued and 15 minute samples of the gastic juice are taken for 4.5 hours. Each sample is measured to the nearest 0.5 ml and tritratable acidity is determined by titrating a 1 ml sample to pH 7.0 with a 0.2N NaOH, employing a fully automatic titration system (Metrohm). Titratable acid output is calculated in microequivalents by multiplying the volume is milliliters by the acid concentration in microequivalents per milliliter.
Results at peak activity after bolus intravenous administration of test compound are expressed as percent inhibition relative to control readings. Dose-response curves were constructed utilizing at least three dose levels with a minimum of three dogs at each dose level. […]

For the next experiment, the system named is histamine H2-receptors. The following applies: Black et al., Nature, 236, 385 (1972); cited from earlier work.
For a further experiment, the system named is peptic ulcer disease. The following applies: Gray et al., Lancet, 1, 8001 (1977); cited from earlier work.

Molecules are shown by their SMILES. Read-outs that look alike come from different tables or passages of the source.

As for `N=C(N)Nc1nc(CSCCNc2nsnc2N)cs1` [Example 1, 3-Amino-4-{2-[(2-guanidinothiazol-4-yl)methylthio]ethylamino}-1,2,5-thiadiazole], the “effect on histamine or dimaprit dose-response curves” value in experiment [1] is on record as “Parallel shifts in dose-response curves were obtained without depressing the maximal response”. Further, the “estimated dissociation constant KB” value in experiment [1] (estimated by method of Furchgott, KB = concentration of antagonist/dose ratio-1, ± S.E., N = 5 preparations) is 0.0094 ± 0.0018. Besides, the “Potency Ratio (cimetidine = 1.0)” value in experiment [1] (from KB, isolated guinea pig right atria, cimetidine = 1.0) is listed as 44; in experiment [2] (i.v., Heidenhain pouch dog, cimetidine = 1.0, Probit analysis) it was 32. Moreover, the median effective dose (ED50) in experiment [2] (intravenous dose giving 50% inhibition at time of peak activity, i.e. 30 minutes post dose, parentheses: 95% confidence limits, histamine 100 μg/kg/hr) worked out at 0.082 µmol/kg. Besides, the “duration of action of antisecretory activity” value in experiment [2] (intravenous dog model, relative to cimetidine) is on record as “prolonged duration of action relative to cimetidine”.
Turning to `CNC(=S)NCCCCc1cnc[nH]1` [burimamide], the “type of antagonism at histamine H2-receptors” value in the experiment on histamine H2-receptors is listed as “competitive antogonist”.
Turning to `CN/C(=N/CCSCc1nc[nH]c1C)NC#N` [cimetidine, reference compound], the “effect on histamine or dimaprit dose-response curves” value in experiment [1] is on record as “Parallel shifts in dose-response curves were obtained without depressing the maximal response”. Moreover, the ED50 in experiment [2] (iv) came out at 2.6 µmol/kg. The “clinical effectiveness in peptic ulcer disease” value in the experiment with peptic ulcer disease was “effective therapeutic agent in the treatment of peptic ulcer disease”.
